The text below walks through data of US9855244B2, “O/W-emulsion-type topical pharmaceutical compositions containing a retinoid” (GALDERMA RESEARCH & DEVELOPMENT, priority 2012, dated 2018).

Data set [1] in a line: Stability of Compound A in mixtures of excipients (solvent/surfactants), determined by HPLC. The format is physicochemical. The conditions noted are these: limits 95%-105% relative to T0. From the text:
(§1) The limits set for good stability are 95%-105% as relative percentage with respect to T0.

Data set [2] in a line: "Single time" cutaneous penetration study, Franz cell, 16 h. It counts as in vitro ADME. The conditions noted are these: 16 h application, ex vivo human skin, FIG. 1; stratum corneum, epidermis, dermis, receiving liquid. The text has this:
The in vitro tests are developed on glass diffusion cells (termed “Franz cells”) or Teflon diffusion cells, in static or dynamic modes. The cells consist of two compartments, a donor compartment and a receiver compartment, separated by a membrane, the orientation of which may be vertical or horizontal.
The membranes have a surface area generally of between 1 and 4 cm^2; they can be synthetic (cellulose, polydimethylsiloxane, etc.), but animal or human skin biopsies are preferable.
Samples of receiver liquid can be taken, at regular times over the course of 24 hours, in order to enable the establishment of the kinetics of diffusion through the skin when this proves necessary. At the end of a maximum of 24 h of application, in the case of the pharmaceutical and cosmetic products, the Franz cells are dismantled, and the substance studied is quantified in the following compartments: formulation remains, stratum corneum, epidermidis, dermis, and receiver liquid. The mass balance can in this case be established, which makes it possible to quantify the “absorbed” doses (present in the receiver liquid), the doses “having penetrated” (present in the viable epidermidis and the dermis) and the “nonabsorbed” doses (present in the formulation remains and the stratum corneum).
Two types of cutaneous penetration studies on human skin ex vivo were therefore carried out. […]

Data set [3] in a line: Stability of Compound A in its principal oily solvents (determined by HPLC). It counts as physicochemical. To be noted: limits 95%-105% relative to T0. The method, then: (§2) In order to produce an oil-in-water (O/W) emulsion according to the invention, pre-formulation studies were carried out in order to reveal the excipients enabling good solubilization and also good stability of the active agent.
Stability of Compound A in its Principal Oily Solvents (Determined by HPLC)
as §1

Data set [4] in a line: Pre-formulation studies: solubility of Compound A. The format is physicochemical. The conditions noted are these: in the solvents customarily used in the fatty phases of topical emulsions. How it is done:
as §2

As to `CC(C)(C)c1cc(-c2cc(-c3ccc(C(=O)O)cc3)ccc2OCCO)ccc1N1CCCC1` [Compound A, 3″-Tert-butyl-4′-(2-hydroxyethoxy)-4″-pyrrolidin-1-yl[1,1′;3′,1″]terphenyl-4-carboxylic acid], the Stability results in data set [1] (Compound A 0.05% in Arlacel 165/Lauroglycol FCC), in data set [1] (Compound A 0.05% in Cremophor EL/Labrafil M1944CS), in data set [1] (Compound A 0.05% in Cremophor EL/Lauroglycol FCC), in data set [1] (Compound A 0.05% in GlucateSS-Glucamate SSE-20/Arlamol E), in data set [1] (Compound A 0.05% in Tween 80/Arlamol E) and in data set [1] (Compound A 0.2% in Cremophor EL/Labrafil M1944CS) was “Unstable” each time. The Stability results in data set [1] (Compound A 0.2% in Tween 80/Hexylene glycol) was “Unstable”; in data set [1] (Compound A 0.2% in Tween 80/Lauroglycol FCC), “Unstable”; in data set [3] (Compound A 0.005% in Miglyol 812N (Caprylic/capric triglycerides), 40° C.), “Stable/Ok 6 Months”; in data set [3] (Compound A 0.005% in Sweet almond oil, 40° C.), “Stable/Ok 6 Months”; in data set [3] (Compound A 0.05% in Arlacel 83V Pharma (Sorbitan Sesquioleate), 40° C.), “Stable/Ok 6 Months”; in data set [3] (Compound A 0.05% in Arlamol E (PPG-15 stearyl ether), 40° C.), “Stable/Ok 6 Months”. Besides, the Stability results in data set [3] (Compound A 0.05% in Arlasolve DMI (Dimethyl Isosorbide)) is “Unstable”; in data set [3] (Compound A 0.05% in Benzyl alcohol), “Unstable”; in data set [3] (Compound A 0.05% in Brij 30 (Laureth-4)), “Unstable”; in data set [3] (Compound A 0.05% in Capryol 90 (Propylene glycol monocaprylate), 40° C.), “Stable/Ok 6 Months”; in data set [3] (Compound A 0.05% in Dipropylene Glycol Care (Dipropylene glycol)), “Unstable”; in data set [3] (Compound A 0.05% in Eutanol G (Octyldodecanol)), “Unstable”. Also, the Stability results in data set [3] (Compound A 0.05% in Labrafil M1944CS (Apricot Kernel Oil PEG-6 Ester), 40° C.) is “Stable/Ok 6 Months”; in data set [3] (Compound A 0.05% in Lauroglycol FCC (Propylene glycol laurate), 40° C.), “Stable/Ok 6 Months”; in data set [3] (Compound A 0.05% in Myritol PC (Propylene glycol dicaprylate/dicaprate)), “Unstable”; in data set [3] (Compound A 0.05% in Phenoxetol (Phenoxyethanol), 40° C.), “Stable/Ok 6 Months”. The “Distribution profile of compound A in the various skin compartments” value in data set [2] is “preferential localization and an accumulation of compound A in the stratum corneum and, less preferentially, in the epidermis”. Besides, the Solubility entry in data set [4] is “low solubility”.
